From PMC12722308, “A phase 1 study of orally administered 5-fluoro-2’-deoxycytidine with tetrahydrouridine in patients with refractory solid tumors” (Cancer Chemotherapy and Pharmacology, 2025)
Values joined by “and” are separate entries in the source; they are usually repeats but may differ in a detail not shown here. Identical values can stand only once. Like-named read-outs stand apart in the source and are kept apart here. Marks after values point to notes of the source that are not given here.

How the values were obtained:
[1] = Plasma pharmacokinetics by LC-MS/MS; assay type: in vivo, human; conditions: for Tmax: read-out: FdCyd Tmax; for Vd/F: read-out: FdCyd Vz/F; for half-life: read-out: FdCyd t½ (converted); for AUC(0-inf): read-out: FdCyd AUC0-inf; for Cmax: read-out: FdCyd Cmax; for FdCyd2h-D2: day 2; for FdCyd2h-D3: day 3
Protocol: Blood specimens for PK analysis were collected on Cycle 1 Day 1 (C1D1) prior to THU administration and then at 15, 30, and 45 min and 1, 2, 3, 4, 5, and 6 h after THU administration, as well as on C1D2 and C1D3 prior to and 2 h after THU administration. Urine specimens for PK analysis were collected on C1D1 prior to treatment and then at every void from 0 to 24 h after THU administration. All specimens for PK analysis were processed and analyzed by LC-MS/MS as described previously, and Phoenix WinNonlin software was used for data analysis.

[2] = test system: p16-expressing cytokeratin-positive (CK+) CTCs; assay: CellSearch analysis of CTC p16 expression, CK+ CTCs; assay type: in vivo, human; conditions: 23 of 30 evaluable patients; oral FdCyd + THU
Protocol: Each blood specimen for CTC analysis (7.5 mL) was collected into a 10-mL CellSave preservative tube (Menarini Silicon Biosystems). Specimens were collected pre-treatment and then 6 h after THU administration on C1D1; prior to THU administration on […] and either C1D8 or […] (at the end of the first round of drug administration); on day 1 of cycle 2 and all subsequent cycles; and optionally at time of progression. Blood sample collection for CTC analysis was performed relative to the morning dose of THU for patients on the BID dose levels (DL10-11). CTC samples were processed and analyzed for p16, cytokeratin, and vimentin as described previously. Serial baseline blood specimens (C1D1 pre, C1D1 post, and […]) were obtained in light of baseline variability in CTC counts and p16 expression, and patients were considered assessable for cytokeratin-positive (CK^+) CTC p16 response if at least one of these baseline specimens (i.e., C1D1 pre, C1D1 post, and/or […]) and at least one post-treatment specimen (collected C2D1 or later) each contained ≥ 6 CTCs, as described. For patients with multiple baseline specimens, the specimen with the highest frequency of p16-positive CTCs was considered “baseline,” as described.

[3] = test system: DNA methylation; design: method as in PMID 2425957; conditions: preclinical data; 1 µM = 245 ng/mL; cited from earlier work
[4] = All FdCyd doses + THU 3000 mg oral (n=44), geom. mean (geom. SD)
[5] = All FdCyd doses + THU 6000 mg oral (n=11), geom. mean (geom. SD)
[6] = DL1: FdCyd 30 mg + THU 3000 mg oral (n=3), geom. mean (geom. SD)
[7] = DL2: FdCyd 60 mg + THU 3000 mg oral (n=4), geom. mean (geom. SD)
[8] = DL3: FdCyd 90 mg + THU 3000 mg oral (n=3), geom. mean (geom. SD)
[9] = DL4: FdCyd 120 mg + THU 3000 mg oral (n=3), geom. mean (geom. SD)
[10] = DL5-9: FdCyd 160 mg + THU 3000 mg oral (n=31), geom. mean (geom. SD)
[11] = DL10: FdCyd 60 mg + THU 6000 mg oral (n=8), geom. mean (geom. SD)
[12] = DL11: FdCyd 80 mg + THU 6000 mg oral (n=3), geom. mean (geom. SD)
[13] = Total, all dose levels (n=55), geom. mean (geom. SD)
[14] = human, plasma, oral, Total, all dose levels (n=55), geom. mean (geom. SD)
[15] = human, plasma, po, All FdCyd doses + THU 3000 mg oral (n=44), geom. mean (geom. SD)
[16] = human, plasma, po, All FdCyd doses + THU 6000 mg oral (n=11), geom. mean (geom. SD)
[17] = human, plasma, po, DL1: FdCyd 30 mg + THU 3000 mg oral (n=3), geom. mean (geom. SD)
[18] = human, plasma, po, DL2: FdCyd 60 mg + THU 3000 mg oral (n=4), geom. mean (geom. SD)
[19] = human, plasma, po, DL3: FdCyd 90 mg + THU 3000 mg oral (n=3), geom. mean (geom. SD)
[20] = human, plasma, po, DL4: FdCyd 120 mg + THU 3000 mg oral (n=3), geom. mean (geom. SD)
[21] = human, plasma, po, DL5-9: FdCyd 160 mg + THU 3000 mg oral (n=31), geom. mean (geom. SD)
[22] = human, plasma, po, DL10: FdCyd 60 mg + THU 6000 mg oral (n=8), geom. mean (geom. SD)
[23] = human, plasma, po, DL11: FdCyd 80 mg + THU 6000 mg oral (n=3), geom. mean (geom. SD)
[24] = plasma FdCyd at 2 h, DL1: FdCyd 30 mg + THU 3000 mg oral (n=3), geom. mean (geom. SD)
[25] = plasma FdCyd at 2 h, DL2: FdCyd 60 mg + THU 3000 mg oral (n=4), geom. mean (geom. SD)
[26] = plasma FdCyd at 2 h, DL3: FdCyd 90 mg + THU 3000 mg oral (n=3), geom. mean (geom. SD)
[27] = plasma FdCyd at 2 h, DL4: FdCyd 120 mg + THU 3000 mg oral (n=3), geom. mean (geom. SD)
[28] = plasma FdCyd at 2 h, DL5-9: FdCyd 160 mg + THU 3000 mg oral (n=31), geom. mean (geom. SD)
[29] = plasma FdCyd at 2 h, DL10: FdCyd 60 mg + THU 6000 mg oral (n=8), geom. mean (geom. SD)
[30] = plasma FdCyd at 2 h, DL11: FdCyd 80 mg + THU 6000 mg oral (n=3), geom. mean (geom. SD)

Compound: Nc1nc(=O)n([C@H]2C[C@H](O)[C@@H](CO)O2)cc1F [FdCyd, 5-fluoro-2’-deoxycytidine]
- FdCyd Cl/F [1, 4]: 123 L/h and 123 (2.37)^c L/h
- FdCyd Cmax/Dose [1, 4]: 4.0 (2.2)^b µg/L / mg
- FdCyd Cl/F [1, 5]: 85.7 (1.65)^c L/h
- FdCyd Cmax/Dose [1, 5]: 6.6 (1.6)^b µg/L / mg
- FdCyd Cl/F [1, 6]: 212 (2.77) L/h
- FdCyd Cmax/Dose [1, 6]: 3.0 (2.3) µg/L / mg
- FdCyd Cl/F [1, 7]: 95.7 (3.08) L/h
- FdCyd Cmax/Dose [1, 7]: 4.9 (3.0) µg/L / mg
- FdCyd Cl/F [1, 8]: 84.7 (1.91) L/h
- FdCyd Cmax/Dose [1, 8]: 5.8 (1.8) µg/L / mg
- FdCyd AUC0-inf [1, 9]: 1.59 (2.43) mg/L•h
- FdCyd Cl/F [1, 9]: 75.6 (2.43) L/h
- FdCyd Cmax/Dose [1, 9]: 7.4 (2.0) µg/L / mg
- FdCyd Cl/F [1, 10]: 133 (2.35) L/h
- FdCyd Cmax/Dose [1, 10]: 3.6 (2.1) µg/L / mg
- FdCyd Cl/F [1, 11]: 96.0 (1.71) L/h
- FdCyd Cmax/Dose [1, 11]: 6.4 (1.6) µg/L / mg
- FdCyd Cl/F [1, 12]: 65.8 (1.41) L/h
- FdCyd Cmax/Dose [1, 12]: 7.1 (1.6) µg/L / mg
- FdCyd Cl/F [1, 13]: 115 (2.26) L/h
- FdCyd Cmax/Dose [1, 13]: 4.4 (2.1) µg/L / mg
- FdCyd peak concentrations at the oral RP2D (160 mg) relative to those after the IV FdCyd RP2D of 100 mg/m^2 ([1]; comparison with ref 8): approximately 20%
- Tmax [1, 14]: ~1.2 h
- Vd/F [1, 14]: 98 L
- bioavailability ([1]; human, plasma, oral, from previous clearance (142 mL/min/m^2) vs current Cl/F (123 L/h), read-out: FdCyd bioavailability in the current study): ~12%
- Tmax [1, 15]: 1.3 h
- Vd/F [1, 15]: 111 L
- half-life [1, 15]: 36 min
- Tmax [1, 16]: 0.9 h
- Vd/F [1, 16]: 56 L
- half-life [1, 16]: 30 min
- AUC(0-inf) [1, 17]: 140 ng·h/mL
- Cmax [1, 17]: 90 ng/mL
- Tmax [1, 17]: 0.9 h
- Vd/F [1, 17]: 187 L
- half-life [1, 17]: 36 min
- AUC(0-inf) [1, 18]: 630 ng·h/mL
- Cmax [1, 18]: 290 ng/mL
- Tmax [1, 18]: 1 h
- Vd/F [1, 18]: 90 L
- half-life [1, 18]: 42 min
- AUC(0-inf) [1, 19]: 1060 ng·h/mL
- Cmax [1, 19]: 530 ng/mL
- Tmax [1, 19]: 1.5 h
- Vd/F [1, 19]: 139 L
- half-life [1, 19]: 66 min
- Cmax [1, 20]: 890 ng/mL
- Tmax [1, 20]: 1.2 h
- Vd/F [1, 20]: 62 L
- half-life [1, 20]: 36 min
- AUC(0-inf) [1, 21]: 1200 ng·h/mL
- Cmax [1, 21]: 580 ng/mL
- Tmax [1, 21]: 1.4 h
- Vd/F [1, 21]: 114 L
- half-life [1, 21]: 36 min
- AUC(0-inf) [1, 22]: 630 ng·h/mL
- Cmax [1, 22]: 380 ng/mL
- Tmax [1, 22]: 0.8 h
- Vd/F [1, 22]: 63 L
- half-life [1, 22]: 30 min
- AUC(0-inf) [1, 23]: 1220 ng·h/mL
- Cmax [1, 23]: 570 ng/mL
- Tmax [1, 23]: 1.5 h
- Vd/F [1, 23]: 44 L
- half-life [1, 23]: 30 min
- concentration at 2 h ([1]; human, plasma FdCyd at 2 h, day 1, DL10: FdCyd 60 mg + THU 6000 mg oral (n=8), geom. mean (geom. SD), read-out: FdCyd2h-D1): 317 ng/mL
- Relationship between week 1 cumulative FdCyd exposure and occurrence of DLT ([1]; in vivo): no statistically significant relationship
- FdCyd dose from which the target Cmax of 1 µM (245 ng/mL) was reached by individual patients ([1]; oral FdCyd with THU): ≥ 60 mg
- FdCyd2h-D1 ([1]; plasma FdCyd at 2 h, day 1, DL2: FdCyd 60 mg + THU 3000 mg oral (n=4), geom. mean (geom. SD)): 0.203 (3.87) mg/L
- FdCyd2h-D1 ([1]; plasma FdCyd at 2 h, day 1, DL3: FdCyd 90 mg + THU 3000 mg oral (n=3), geom. mean (geom. SD)): 0.525 (1.79) mg/L
- FdCyd2h-D1 ([1]; plasma FdCyd at 2 h, day 1, DL4: FdCyd 120 mg + THU 3000 mg oral (n=3), geom. mean (geom. SD)): 0.611 (3.17) mg/L
- FdCyd2h-D1 ([1]; plasma FdCyd at 2 h, day 1, DL5-9: FdCyd 160 mg + THU 3000 mg oral (n=31), geom. mean (geom. SD)): 0.505 (1.92) mg/L
- FdCyd2h-D1 ([1]; plasma FdCyd at 2 h, day 1, DL11: FdCyd 80 mg + THU 6000 mg oral (n=3), geom. mean (geom. SD)): 0.571 (1.64) mg/L
- FdCyd2h-D2 [1, 24]: 0.076 (3.80) mg/L
- FdCyd2h-D2 [1, 25]: 0.169 (3.80) mg/L
- FdCyd2h-D2 [1, 26]: 0.449 (1.55) mg/L
- FdCyd2h-D2 [1, 27]: 0.499 (9.47) mg/L
- FdCyd2h-D2 [1, 28]: 0.595 (3.29) mg/L
- FdCyd2h-D2 [1, 29]: 0.559 (1.63) mg/L
- FdCyd2h-D2 [1, 30]: 0.931 (1.99) mg/L
- FdCyd2h-D3 [1, 24]: 0.042 (2.6) mg/L
- FdCyd2h-D3 [1, 25]: 0.145 (1.14) mg/L
- FdCyd2h-D3 [1, 26]: 0.460 (2.89) mg/L
- FdCyd2h-D3 [1, 27]: 0.891 (2.08) mg/L
- FdCyd2h-D3 [1, 28]: 0.650 (1.98) mg/L
- FdCyd2h-D3 [1, 29]: 0.584 (1.60) mg/L
- FdCyd2h-D3 [1, 30]: 0.745 (2.48) mg/L
- Patients with a treatment-associated increase in the proportion of p16+CK+ CTCs [2]: 77%
- FdCyd concentration giving inhibition of DNA methylation in vitro [3]: ≥ 1 µM
